Measurements as given in ChEMBL document CHEMBL1201862, “PubChem BioAssay data set” (2004).
Where “and” joins values, the source holds several entries; their conditions need not be identical. Equal entries are not always repeated.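 All cell lines were grown in 96-well plates and treated with compound for 48 hours. Here, GI50 denotes the concentration required for 50% inhibition of growth.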 Calls of active or inactive are those of the source. No stated cut-off is given here; in the data, active = GI50 up to about 1.1 µM and inactive = higher.

Assays:
Assay in all cases: DTP human tumour cell line panel, 48 h
[1] = system: SK-OV-3
[2] = system: A498
[3] = system: HCC 2998
[4] = system: DU-145
[5] = system: T47D
[6] = system: MCF7
[7] = system: OVCAR-4
[8] = system: SK-MEL-28
[9] = system: SK-MEL-2
[10] = system: NCI-H226
[11] = system: MDA-MB-231
[12] = system: ACHN
[13] = system: SN12C
[14] = system: SNB-19
[15] = system: TK-10
[16] = system: K562
[17] = system: SNB-75
[18] = system: UO-31
[19] = system: SF-268
[20] = system: MDA-MB-435
[21] = system: Hs-578T
[22] = system: HOP-62
[23] = system: OVCAR-5
[24] = system: NCI-H460
[25] = system: OVCAR-3
[26] = system: SF-539
[27] = system: A549
[28] = system: IGROV-1
[29] = system: MDA-N
[30] = system: RPMI-8226
[31] = system: UACC-257
[32] = system: SR
[33] = system: LOX IMVI
[34] = system: HT-29
[35] = system: HCT-116
[36] = system: U-251
[37] = system: NCI/ADR-RES
[38] = system: OVCAR-8
[39] = system: Malme-3M
[40] = system: SF-295
[41] = system: HL-60
[42] = system: NCI-H522
[43] = system: M14
[44] = system: MOLT-4
[45] = system: 786-0
[46] = system: RXF 393
[47] = system: NCI-H23
[48] = system: HOP-92
[49] = system: PC-3
[50] = system: SW-620
[51] = system: SK-MEL-5
[52] = system: EKVX
[53] = system: HCT-15
[54] = system: CCRF-CEM

C=CCOC(=O)CCCCCCCCCCCCCCCOC(=O)C1=C(CCC[C@@H](C)O[Si](C)(C)C(C)(C)C)N=C(N)N2[C@H](CC3(CC/C=C\[C@H](CC)O[Si](C(C)C)(C(C)C)C(C)C)OCCO3)CC[C@@H]12
GI50 [1]: > 100 µM (inactive) | GI50 [2]: > 100 µM (inactive) | GI50 [3]: 49.3 µM (inactive) | GI50 [4]: > 100 µM (inactive) | GI50 [5]: > 100 µM (inactive) | GI50 [6]: 31.9 µM (inactive) | GI50 [7]: > 100 µM (inactive) | GI50 [8]: > 100 µM (inactive) | GI50 [9]: > 100 µM (inactive) | GI50 [10]: > 100 µM (inactive) | GI50 [11]: > 100 µM (inactive) | GI50 [12]: > 100 µM (inactive) | GI50 [13]: > 100 µM (inactive) | GI50 [14]: > 100 µM (inactive) | GI50 [15]: > 100 µM (inactive) | GI50 [16]: < 0.01 µM (active) | GI50 [17]: 83.8 µM (inactive) | GI50 [18]: 63.5 µM (inactive)

COC(=O)C1=COC(C)C2CN3CCc4c([nH]c5ccccc45)C3CC12 (stereo not given)
GI50 [1]: 58.7 µM (inactive) | GI50 [19]: 54.1 µM (inactive) | GI50 [20]: 52.1 µM (inactive) | GI50 [21]: 49 µM (inactive) and 26 µM (inactive) | GI50 [14]: 84.5 µM (inactive) | GI50 [22]: > 100 µM (inactive) and 55.1 µM (inactive) | GI50 [23]: > 100 µM (inactive)

C[N+](C)(C)C1(C(=O)[O-])CC1
GI50 [24]: > 100 µM (inactive) | GI50 [2]: > 100 µM (inactive) | GI50 [19]: > 100 µM (inactive) | GI50 [3]: > 100 µM (inactive) | GI50 [4]: > 100 µM (inactive) | GI50 [25]: > 100 µM (inactive) | GI50 [26]: > 100 µM (inactive) | GI50 [27]: > 100 µM (inactive) | GI50 [28]: > 100 µM (inactive) | GI50 [29]: > 100 µM (inactive) | GI50 [30]: > 100 µM (inactive) | GI50 [20]: > 100 µM (inactive) | GI50 [5]: 72.1 µM (inactive) | GI50 [31]: > 100 µM (inactive) | GI50 [32]: > 100 µM (inactive) | GI50 [33]: > 100 µM (inactive) | GI50 [34]: > 100 µM (inactive) | GI50 [6]: > 100 µM (inactive) | GI50 [35]: > 100 µM (inactive) | GI50 [36]: > 100 µM (inactive) | GI50 [37]: > 100 µM (inactive) | GI50 [38]: > 100 µM (inactive) | GI50 [39]: > 100 µM (inactive) | GI50 [7]: > 100 µM (inactive) | GI50 [40]: > 100 µM (inactive) | GI50 [41]: > 100 µM (inactive) | GI50 [8]: > 100 µM (inactive) | GI50 [10]: > 100 µM (inactive) | GI50 [42]: > 100 µM (inactive) | GI50 [43]: > 100 µM (inactive) | GI50 [44]: > 100 µM (inactive) | GI50 [45]: > 100 µM (inactive) | GI50 [21]: > 100 µM (inactive) | GI50 [12]: > 100 µM (inactive) | GI50 [46]: > 100 µM (inactive) | GI50 [47]: > 100 µM (inactive) | GI50 [13]: > 100 µM (inactive) | GI50 [14]: > 100 µM (inactive) | GI50 [48]: > 100 µM (inactive) | GI50 [22]: > 100 µM (inactive) | GI50 [15]: > 100 µM (inactive) | GI50 [16]: > 100 µM (inactive) | GI50 [17]: > 100 µM (inactive) | GI50 [49]: > 100 µM (inactive) | GI50 [50]: > 100 µM (inactive) | GI50 [51]: > 100 µM (inactive) | GI50 [23]: > 100 µM (inactive) | GI50 [52]: > 100 µM (inactive) | GI50 [53]: > 100 µM | GI50 [54]: > 100 µM (inactive)
